Measured values from the supplement of paper PMC10307832.

Key:
Test in all cases: relative viability (nuclei count vs DMSO), 5 days (fraction); higher = more cells survive
Ispinesib + Navitoclax = compound: Cc1ccc(C(=O)N(CCCN)[C@@H](c2nc3cc(Cl)ccc3c(=O)n2Cc2ccccc2)C(C)C)cc1 [Ispinesib] + CC1(C)CCC(c2ccc(Cl)cc2)=C(CN2CCN(c3ccc(C(=O)NS(=O)(=O)c4ccc(N[C@H](CCN5CCOCC5)CSc5ccccc5)c(S(=O)(=O)C(F)(F)F)c4)cc3)CC2)C1 [Navitoclax] (partner 0.5 µM)
Procedure, shortened: (§1)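 Dosing by pin tool came one day after lung cancer cell lines were seeded in 1536-well plates, using either one drug or a fixed anchor-drug dose plus five library-drug doses (not always all listed) in √10 steps. After 5 days, nuclei were counted on 4× images. Relative viability is treated-well nuclei count divided by vehicle-well nuclei count, and values are medians of duplicate plates.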

Linsitinib + Pictilisib = compound: C[C@]1(O)C[C@@H](c2nc(-c3ccc4ccc(-c5ccccc5)nc4c3)c3c(N)nccn32)C1 [Linsitinib] + CS(=O)(=O)N1CCN(Cc2cc3nc(-c4cccc5[nH]ncc45)nc(N4CCOCC4)c3s2)CC1 [Pictilisib] (partner 1 µM)
Procedure, shortened: as §1

Ispinesib + Pemetrexed = compound: Cc1ccc(C(=O)N(CCCN)[C@@H](c2nc3cc(Cl)ccc3c(=O)n2Cc2ccccc2)C(C)C)cc1 [Ispinesib] + Nc1nc2[nH]cc(CCc3ccc(C(=O)N[C@@H](CCC(=O)O)C(=O)O)cc3)c2c(=O)[nH]1 [Pemetrexed] (partner 0.2 µM)
Procedure, shortened: as §1

Ispinesib + AZD7762 = compound: Cc1ccc(C(=O)N(CCCN)[C@@H](c2nc3cc(Cl)ccc3c(=O)n2Cc2ccccc2)C(C)C)cc1 [Ispinesib] + NC(=O)Nc1cc(-c2cccc(F)c2)sc1C(=O)N[C@H]1CCCNC1 [AZD7762] (partner 0.2 µM)
Procedure, shortened: as §1

Row | Cell Line | relative viability (Ispinesib + Navitoclax; first compound 0.001 µM) | relative viability (Ispinesib + Navitoclax; first compound 0.003162 µM) | relative viability (Ispinesib + Navitoclax; first compound 0.01 µM) | relative viability (Ispinesib + Navitoclax; first compound 0.1 µM) | relative viability (Linsitinib + Pictilisib; first compound 0.01 µM) | relative viability (Linsitinib + Pictilisib; first compound 0.03162 µM) | relative viability (Linsitinib + Pictilisib; first compound 0.1 µM) | relative viability (Linsitinib + Pictilisib; first compound 0.3162 µM) | relative viability (Linsitinib + Pictilisib; first compound 1 µM) | relative viability (Ispinesib + Pemetrexed; first compound 0.001 µM) | relative viability (Ispinesib + Pemetrexed; first compound 0.003162 µM) | relative viability (Ispinesib + Pemetrexed; first compound 0.01 µM) | relative viability (Ispinesib + Pemetrexed; first compound 0.03162 µM) | relative viability (Ispinesib + Pemetrexed; first compound 0.1 µM) | relative viability (Ispinesib + AZD7762; first compound 0.001 µM) | relative viability (Ispinesib + AZD7762; first compound 0.003162 µM) | relative viability (Ispinesib + AZD7762; first compound 0.01 µM) | relative viability (Ispinesib + AZD7762; first compound 0.03162 µM) | relative viability (Ispinesib + AZD7762; first compound 0.1 µM) | relative viability (Ispinesib + Navitoclax; first compound 0.03162 µM)
1 | HCC-78 | 0.706 | 0.851 | 0.85 | 0.657 | 0.205 | 0.225 | 0.162 | 0.203 | 0.204 | 0.916 | 0.931 | 0.937 | 0.932 | 0.617 | 0.691 | 0.592 | 0.532 | 0.526 | 0.422 | –
2 | HCC-366 | 1.16 | 1.02 | 1.31 | 0.27 | 0.127 | 0.0857 | 0.0909 | – | 0.108 | 0.18 | 0.189 | 0.176 | 0.153 | 0.0222 | 0.267 | 0.29 | 0.204 | 0.346 | 0.0475 | 1.2
3 | IA-LM | 0.969 | 0.751 | 0.44 | 0.0187 | 0.329 | 0.409 | 0.334 | 0.349 | 0.156 | – | – | – | – | – | – | – | – | – | – | 0.0088
4 | LCLC-103H | – | – | – | – | 0.686 | 0.566 | 0.596 | 0.718 | 0.535 | 0.475 | 0.474 | 0.446 | 0.449 | 0.352 | 0.849 | 0.836 | 0.887 | 0.484 | 0.434 | –
5 | NCI-H358 | – | – | – | – | 0.317 | 0.232 | 0.333 | 0.261 | 0.281 | 0.176 | 0.146 | 0.17 | 0.169 | 0.135 | 0.654 | 0.462 | 0.514 | 0.433 | 0.253 | –
6 | NCI-H520 | 1.02 | 1.14 | 1.04 | 0.286 | 0.324 | 0.306 | 0.285 | – | 0.284 | 0.768 | 0.75 | 0.721 | 0.231 | 0.211 | – | – | – | – | – | 0.274
7 | NCI-H522 | – | – | – | – | – | – | – | – | – | 0.961 | 0.975 | 0.859 | 0.586 | 0.364 | 0.782 | 1.01 | 0.913 | 0.845 | 0.316 | –
8 | NCI-H650 | – | – | – | – | 0.875 | 0.876 | 0.953 | – | 0.814 | 1.1 | 1.02 | 0.933 | 0.609 | 0.238 | 1.15 | 1.21 | 1.09 | 0.634 | 0.456 | –
9 | NCI-H661 | – | – | – | – | – | 0.375 | 0.329 | 0.464 | 0.332 | 0.933 | 0.969 | 0.92 | 0.596 | 0.212 | – | – | – | – | – | –
10 | NCI-H727 | – | 0.519 | 0.507 | 0.26 | 0.414 | 0.353 | 0.342 | 0.281 | 0.17 | – | – | – | – | – | 0.722 | 0.564 | – | 0.548 | 0.498 | 0.387
11 | NCI-H1299 | 1.02 | 1.08 | 1.08 | 0.52 | 0.864 | 0.794 | 0.766 | 0.796 | 0.648 | – | – | – | – | – | – | – | – | – | – | 1.01
12 | NCI-H1563 | – | – | – | – | 0.665 | 0.668 | 0.647 | 0.657 | 0.545 | 0.849 | 0.859 | 0.743 | 0.771 | 0.661 | – | – | – | – | – | –
13 | NCI-H1648 | – | – | – | – | – | – | – | – | – | 0.92 | 0.723 | 0.802 | 0.751 | 0.305 | 0.653 | 0.774 | 0.682 | 0.616 | 0.273 | –
14 | NCI-H1650 | 1.33 | 1.32 | 1.23 | 0.25 | 0.529 | 0.485 | 0.556 | 0.138 | 0.356 | 0.381 | 0.368 | 0.372 | 0.321 | 0.161 | – | – | – | – | – | 0.258
15 | NCI-H1703 | 1.2 | 0.727 | 0.117 | 0.114 | 0.29 | – | 0.216 | 0.28 | 0.234 | – | – | – | – | – | 0.16 | 0.121 | 0.134 | 0.0817 | 0.0822 | 0.0871
16 | NCI-H2009 | 1.28 | 1.23 | 1.32 | 0.374 | 0.946 | 0.796 | 0.833 | 0.101 | 0.687 | 1.13 | 1.06 | 1.03 | 0.936 | 0.44 | – | – | – | – | – | 0.678
17 | NCI-H2023 | 1.07 | 1.09 | 1.1 | 0.21 | 0.233 | 0.18 | 0.172 | 0.0774 | 0.147 | 0.241 | 0.241 | 0.19 | 0.144 | 0.115 | – | – | – | – | – | 0.837
18 | NCI-H2228 | 0.896 | 0.896 | 1.37 | 0.187 | 0.425 | 0.382 | 0.28 | 0.239 | 0.27 | 0.375 | 0.293 | 0.424 | 0.303 | 0.201 | – | – | – | – | – | 0.878
19 | NCI-H2342 | – | – | – | – | – | – | – | – | – | 0.772 | 0.813 | 0.924 | 0.751 | 0.468 | 0.609 | 0.432 | 0.528 | 0.411 | 0.373 | –
20 | SK-LU-1 | 0.955 | 0.794 | 1.23 | 0.164 | 0.54 | 0.548 | 0.706 | – | 0.592 | 1.07 | 0.972 | 1.27 | 0.897 | 0.412 | – | – | – | – | – | 0.415
21 | SK-MES-1 | 1.47 | 1.2 | 1.14 | 0.227 | 0.357 | 0.377 | 0.32 | 0.293 | 0.339 | 1.02 | 1.04 | 0.805 | 0.206 | 0.234 | – | – | – | – | – | 0.922
22 | SW 900 | – | – | – | – | – | – | – | – | – | 0.482 | 0.516 | 0.525 | 0.469 | 0.189 | 0.635 | 0.492 | 0.648 | 0.565 | 0.259 | –
23 | SW 1573 | 1.22 | 1 | 1.21 | 0.17 | 0.453 | 0.571 | 0.471 | 0.433 | 0.425 | 0.799 | 0.791 | 0.78 | 0.279 | 0.152 | – | – | – | – | – | 0.915
